Earlier results as cited in patent US12383538B2, “Use of mTOR inhibitors for prevention of intestinal polyp growth and cancer” (priority 2013, dated 2025).

Tested on: colorectal adenomas
Settings: adults with FAP, 6-month trial

In the case of `Cc1ccc(-c2cc(C(F)(F)F)nn2-c2ccc(S(N)(=O)=O)cc2)cc1` [celecoxib], the tolerability is listed as “well tolerated”.
